“And” between values parts separate entries of the source, which are not always exact repeats. Identical values can stand only once.
Test system: 945468-187-T-J3-PDC spheroids with HUVEC/MSC, viability
Assay: Anticancer human tumor 945468-187-T-J3-PDC patient-derived rectal carcinoma cell line growth inhibition [PI3K]
Conditions: for viability, T/C: stronger effect = lower value
Outline: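 Multi-cell spheroids combine tumor cells with HUVEC and human MSCs, treated with targeted agents alone or with inavolisib, alpelisib, duvelisib or copanlisib. Concentrations fall in half-log steps from at or near clinical Cmax, or from 10 microM where Cmax is unknown; viability read-out.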

[1] = curve of first compound, second compound 0.0316 µM
[2] = curve of first compound, second compound 0.1 µM
[3] = curve of first compound, second compound 0.316 µM
[4] = curve of first compound, second compound 1 µM
[5] = curve of first compound, second compound 3.16 µM
[6] = curve of first compound, second compound 10 µM
[7] = second compound 0.0316 µM, first compound 0.0316 µM
[8] = second compound 0.0316 µM, first compound 0.1 µM
[9] = second compound 0.1 µM, first compound 0.0316 µM
[10] = second compound 0.1 µM, first compound 0.1 µM
[11] = second compound 0.316 µM, first compound 0.0316 µM
[12] = second compound 0.316 µM, first compound 0.1 µM
[13] = second compound 1 µM, first compound 0.0316 µM
[14] = second compound 1 µM, first compound 0.1 µM
[15] = second compound 3.16 µM, first compound 0.0316 µM
[16] = second compound 3.16 µM, first compound 0.1 µM
[17] = second compound 10 µM, first compound 0.0316 µM
[18] = second compound 10 µM, first compound 0.1 µM
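Note: spheroids exposed to agents for 7 days before viability read.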
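Throughout, for viability, T/C: 100% = DMSO vehicle control viability.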

SMILES: C#Cc1c(F)ccc2cc(O)cc(-c3ncc4c(N5CC6CCC(C5)N6)nc(OCC56CCCN5CC(F)C6)nc4c3F)c12 (stereo unspecified) + Cc1nc(NC(=O)N2CCCC2C(N)=O)sc1-c1ccnc(C(C)(C)C(F)(F)F)c1
- IC50 [1]: > 10000 nM
- IC50 [2]: > 10000 nM
- IC50 [3]: > 10000 nM
- IC50 [4]: > 10000 nM
- IC50 [5]: 7250 nM
- IC50 [6]: 464 nM
- viability, T/C [7]: 96.8%
- viability, T/C [8]: 101%
- viability, T/C (second compound 0.0316 µM, first compound 0.316 µM): 95.4%
- viability, T/C (second compound 0.0316 µM, first compound 1 µM): 107%
- viability, T/C (second compound 0.0316 µM, first compound 3.16 µM): 127%
- viability, T/C (second compound 0.0316 µM, first compound 10 µM): 119%
- viability, T/C [9]: 105%
- viability, T/C [10]: 115%
- viability, T/C (second compound 0.1 µM, first compound 0.316 µM): 101%
- viability, T/C (second compound 0.1 µM, first compound 1 µM): 113%
- viability, T/C (second compound 0.1 µM, first compound 3.16 µM): 132%
- viability, T/C (second compound 0.1 µM, first compound 10 µM): 115%
- viability, T/C [11]: 109%
- viability, T/C [12]: 105%
- viability, T/C (second compound 0.316 µM, first compound 0.316 µM): 97.6%
- viability, T/C (second compound 0.316 µM, first compound 1 µM): 113%
- viability, T/C (second compound 0.316 µM, first compound 3.16 µM): 134%
- viability, T/C (second compound 0.316 µM, first compound 10 µM): 118%
- viability, T/C [13]: 114%
- viability, T/C [14]: 110%
- viability, T/C (second compound 1 µM, first compound 0.316 µM): 109%
- viability, T/C (second compound 1 µM, first compound 1 µM): 112%
- viability, T/C (second compound 1 µM, first compound 3.16 µM): 127%
- viability, T/C (second compound 1 µM, first compound 10 µM): 106%
- viability, T/C [15]: 107%
- viability, T/C [16]: 110%
- viability, T/C (second compound 3.16 µM, first compound 0.316 µM): 111%
- viability, T/C (second compound 3.16 µM, first compound 1 µM): 103%
- viability, T/C (second compound 3.16 µM, first compound 3.16 µM): 80.9%
- viability, T/C (second compound 3.16 µM, first compound 10 µM): 38%
- viability, T/C [17]: 70.4%
- viability, T/C [18]: 59.9%
- viability, T/C (second compound 10 µM, first compound 0.316 µM): 50%
- viability, T/C (second compound 10 µM, first compound 1 µM): 47.8%
- viability, T/C (second compound 10 µM, first compound 3.16 µM): 26.9%
- viability, T/C (second compound 10 µM, first compound 10 µM): 9.1%

SMILES: CC(Cn1ccc(-c2ccc(C#N)c(Cl)c2)n1)NC(=O)c1cc(C(C)O)[nH]n1 (stereo unspecified)
- viability, T/C (compound 0.0316 µM): 89.7% [middle of 4 runs]
- viability, T/C (compound 0.1 µM): 97.5% [middle of 4 runs]
- viability, T/C (compound 0.316 µM): 94.9% [middle of 4 runs]
- viability, T/C (compound 1 µM): 99.5% [middle of 4 runs]
- viability, T/C (compound 3.16 µM): 114% [middle of 4 runs]
- viability, T/C (compound 10 µM): 89.8% and 101% (2×) and 99%
- IC50 (curve of compound): > 10000 nM

SMILES: CC(C)n1nc(-c2ccc3oc(N)nc3c2)c2c(N)ncnc21 + Cc1nc(NC(=O)N2CCCC2C(N)=O)sc1-c1ccnc(C(C)(C)C(F)(F)F)c1
- IC50 [1]: > 100 nM
- IC50 [2]: > 100 nM
- IC50 [3]: > 100 nM
- IC50 [4]: 77 nM
- IC50 [5]: 30.2 nM
- IC50 [6]: 10.7 nM
- viability, T/C (second compound 0.0316 µM, first compound 0.000316 µM): 105%
- viability, T/C (second compound 0.0316 µM, first compound 0.001 µM): 118%
- viability, T/C (second compound 0.0316 µM, first compound 0.00316 µM): 98.8%
- viability, T/C (second compound 0.0316 µM, first compound 0.01 µM): 114%
- viability, T/C [7]: 127%
- viability, T/C [8]: 65.5%
- viability, T/C (second compound 0.1 µM, first compound 0.000316 µM): 109%
- viability, T/C (second compound 0.1 µM, first compound 0.001 µM): 109%
- viability, T/C (second compound 0.1 µM, first compound 0.00316 µM): 95.4%
- viability, T/C (second compound 0.1 µM, first compound 0.01 µM): 115%
- viability, T/C [9]: 118%
- viability, T/C [10]: 54.5%
- viability, T/C (second compound 0.316 µM, first compound 0.000316 µM): 113%
- viability, T/C (second compound 0.316 µM, first compound 0.001 µM): 104%
- viability, T/C (second compound 0.316 µM, first compound 0.00316 µM): 97.5%
- viability, T/C (second compound 0.316 µM, first compound 0.01 µM): 121%
- viability, T/C [11]: 111%
- viability, T/C [12]: 53.3%
- viability, T/C (second compound 1 µM, first compound 0.000316 µM): 116%
- viability, T/C (second compound 1 µM, first compound 0.001 µM): 114%
- viability, T/C (second compound 1 µM, first compound 0.00316 µM): 101%
- viability, T/C (second compound 1 µM, first compound 0.01 µM): 109%
- viability, T/C [13]: 84%
- viability, T/C [14]: 39.6%
- viability, T/C (second compound 3.16 µM, first compound 0.000316 µM): 108%
- viability, T/C (second compound 3.16 µM, first compound 0.001 µM): 104%
- viability, T/C (second compound 3.16 µM, first compound 0.00316 µM): 102%
- viability, T/C (second compound 3.16 µM, first compound 0.01 µM): 77.2%
- viability, T/C [15]: 49.9%
- viability, T/C [16]: 29.7%
- viability, T/C (second compound 10 µM, first compound 0.000316 µM): 68%
- viability, T/C (second compound 10 µM, first compound 0.001 µM): 53.3%
- viability, T/C (second compound 10 µM, first compound 0.00316 µM): 64.3%
- viability, T/C (second compound 10 µM, first compound 0.01 µM): 50.2%
- viability, T/C [17]: 31.8%
- viability, T/C [18]: 22.7%
